Measurements as given in publication PMC9735621, “Synthesis, Biological Evaluation and Computational Studies of New Hydrazide Derivatives Containing 1,3,4-Oxadiazole as Antitubercular Agents” (International Journal of Molecular Sciences, 2022).
Values joined by “and” are separate entries in the source; they are usually repeats but may differ in a detail not shown here. Identical values can stand only once.

Experiments:
Assay in all cases: microbe, parasite or virus in culture
Format in all cases: cell-based
[1] = test system: M. tuberculosis Rifa-R ATCC 35838; conditions: Mycobacterium tuberculosis, ATCC35838
[2] = test system: M. tuberculosis INH-R ATCC35822; conditions: Mycobacterium tuberculosis
[3] = test system: M. tuberculosis Pyr-R ATCC 35828; conditions: Mycobacterium tuberculosis, ATCC35828
[4] = test system: M. tuberculosis Strepto-R ATCC 35820; conditions: Mycobacterium tuberculosis, ATCC35820

| SMILES | MIC [1] | MIC [2] | MIC [3] | MIC [4] |
| --- | --- | --- | --- | --- |
| O=C(N/N=C\c1ccc[nH]1)c1nnc(-c2ccccc2)o1 [1k, (Z)-N’-((1H-pyrrol-2-yl)methylen)-5-phenyl-1,3,4-oxadiazol-2-carbohydrazide] | > 64 µg/mL | > 64 µg/mL | 4 µg/mL and 14.1 µM | > 64 µg/mL |
| O=C(N/N=C\c1ccncc1)c1nnc(-c2ccccc2)o1 [1m, (Z)-5-phenyl-N’-(pyridin-4-ylmethylen)-1,3,4-oxadiazol-2-carbohydrazide] | > 64 µg/mL | > 64 µg/mL | 16 µg/mL and 54.8 µM | > 64 µg/mL |
| Cc1ccc(C=NNC(=O)c2nnc(-c3ccccc3)o2)cc1 (mixture of isomers) [1j, (E/Z)-N’-(4-methylbenzyliden)-5-phenyl-1,3,4-oxadiazol-2-carbohydrazide] | > 64 µg/mL | > 64 µg/mL | 16 µg/mL and 52.2 µM | > 64 µg/mL |
| O=C(N/N=C\c1ccncc1)c1nnc(-c2ccncc2)o1 [1f, (Z)-5-(pyridin-4-yl)-N’-(pyridin-4-ylmethylen)-1,3,4-oxadiazol-2-carbohydrazide] | > 64 µg/mL | > 64 µg/mL | > 64 µg/mL | > 64 µg/mL |
| O=C(N/N=C\c1ccccc1)c1nnc(-c2ccncc2)o1 [1a, (Z)-N’-benzyliden-5-(pyridin-4-yl)-1,3,4-oxadiazol-2-carbohydrazide] | > 64 µg/mL | > 64 µg/mL | > 64 µg/mL | > 64 µg/mL |
| O=C(N/N=C\c1ccco1)c1nnc(-c2ccncc2)o1 [1g, (Z)-N’-(furan-2-ylmethylen)-5-(pyridin-4-yl)-1,3,4-oxadiazol-2-carbohydrazide] | > 64 µg/mL | > 64 µg/mL | > 64 µg/mL | > 64 µg/mL |
| NNC(=O)c1ccncc1 [INH, Isoniazid, reference compound] | 0.25 µg/mL and 1.8 µM | > 64 µg/mL | 0.25 µg/mL and 1.8 µM | 0.25 µg/mL and 1.8 µM |
| O=C(N/N=C\c1ccc(Cl)cc1)c1nnc(-c2ccccc2)o1 [1i, (Z)-N’-(4-chlorobenzyliden)-5-phenyl-1,3,4-oxadiazol-2-carbohydrazide] | > 64 µg/mL | > 64 µg/mL | 32 µg/mL and 97.8 µM | > 64 µg/mL |
| O=C(N/N=C\c1ccc(Cl)cc1)c1nnc(-c2ccncc2)o1 [1b, (Z)-N’-(4-chlorobenzyliden)-5-(pyridin-4-yl)-1,3,4-oxadiazol-2-carbohydrazide] | > 64 µg/mL | > 64 µg/mL | > 64 µg/mL | > 64 µg/mL |
| CO[C@H]1/C=C/O[C@@]2(C)Oc3c(C)c(O)c4c(O)c(c(/C=N/N5CCN(C)CC5)c(O)c4c3C2=O)NC(=O)/C(C)=C\C=C\[C@H](C)[C@H](O)[C@@H](C)[C@@H](O)[C@@H](C)[C@H](OC(C)=O)[C@@H]1C [RIF, reference compound] | > 64 µg/mL | 0.25 µg/mL and 0.3 µM | 0.25 µg/mL and 0.3 µM | 0.25 µg/mL and 0.3 µM |
| O=C(N/N=C\c1ccccn1)c1nnc(-c2ccncc2)o1 [1e, (Z)-N’-(pyridin-2-ylmethylen)-5-(pyridin-4-yl)-1,3,4-oxadiazol-2-carbohydrazide] | 32 µg/mL and 108 µM | > 64 µg/mL | 4 µg/mL and 13.6 µM | 32 µg/mL and 108 µM |
| O=C(N/N=C\c1ccc[nH]1)c1nnc(-c2ccncc2)o1 [1d, (Z)-N’-((1H-pyrrol-2-yl)methylen)-5-(pyridin-4-yl)-1,3,4-oxadiazol-2-carbohydrazide] | > 64 µg/mL | > 64 µg/mL | > 64 µg/mL | > 64 µg/mL |
| O=C(N/N=C\c1ccccc1)c1nnc(-c2ccccc2)o1 [1h, (Z)-N’-benzyliden-5-phenyl-1,3,4-oxadiazol-2-carbohydrazide] | > 64 µg/mL | > 64 µg/mL | 64 µg/mL and 196 µM | > 64 µg/mL |
| O=C(N/N=C\c1ccco1)c1nnc(-c2ccccc2)o1 [1n, (Z)-N’-(furan-2-ylmethylen)-5-phenyl-1,3,4-oxadiazol-2-carbohydrazide] | 32 µg/mL and 103 µM | > 64 µg/mL | 16 µg/mL and 56.6 µM | 32 µg/mL and 103 µM |
| O=C(N/N=C\c1ccccn1)c1nnc(-c2ccccc2)o1 [1l, (Z)-5-phenyl-N’-(pyridin-2-ylmethylen)-1,3,4-oxadiazol-2-carbohydrazide] | 32 µg/mL and 54.4 µM | > 64 µg/mL | 4 µg/mL and 13.6 µM | 64 µg/mL and 109 µM |
| Cc1ccc(/C=N\NC(=O)c2nnc(-c3ccncc3)o2)cc1 [1c, (Z)-N’-(4-methylbenzyliden)-5-(pyridin-4-yl)-1,3,4-oxadiazol-2-carbohydrazide] | > 64 µg/mL | > 64 µg/mL | > 64 µg/mL | > 64 µg/mL |
